Calls of active or inactive are those of the source. No cut-off for these calls is given here.
Species: Rattus norvegicus
Assay: Antiobesity activity in Sprague-Dawley rat assessed as reduction in cumulative food intake
Format: functional, organism-based

## FC(F)(F)CCc1ccnc2c1CC[C@@H]1CNCCN21
  Activity: Active

— ChEMBL document CHEMBL4196226, “5-HT2C Receptor Agonists for the Treatment of Obesity” (ACS Med Chem Lett, 2018)
